Like-named read-outs stand apart in the source and are kept apart here.
What was measured:
Slc:ddY mice = assay: Novel object recognition test in mice (mORT), evaluation of cognitive function; assay type: in vivo; settings: 3 mg/kg (oral), administered prior to the 1st trial, 2nd trial 24 hours after
Protocol: Evaluation of Cognitive Function with Mice in Novel Object Recognition Test (Hereinafter. Referred to as “mORT”)
Slc:ddY mice (25 to 30 g, male, Japan SLC) can be used in the novel object recognition test wherein the interval between the 1st trial (training) and the 2nd trial (test) correlates with the memory loss for the objects used in the 1st trial, and a significant memory-loss is observed when the 2nd trial is performed 24 hours after the 1st trial. According to the test mechanism, the present compounds were administered prior to the 1st trial, and the enhancement effect on memory in the 2nd trial was evaluated.

human α7 nAChR = molecular target: T1, human α7 nAChR (Homo sapiens, UniProt P36544); assay: Evaluation of PAM activity with human α7 nACh receptor stably expressing cells (aequorin luminescence, FDSS7000); assay type: cell-based; settings: for activity at 10 µM: read-out: α7PAM (%) @10 μM; for activity at 1 µM: 1 μM test compound (values marked *, footnote of Table 25), read-out: α7PAM (%) @1 μM
T1 construct: expressed in transfected cells
T1 sequence (P36544 23-502): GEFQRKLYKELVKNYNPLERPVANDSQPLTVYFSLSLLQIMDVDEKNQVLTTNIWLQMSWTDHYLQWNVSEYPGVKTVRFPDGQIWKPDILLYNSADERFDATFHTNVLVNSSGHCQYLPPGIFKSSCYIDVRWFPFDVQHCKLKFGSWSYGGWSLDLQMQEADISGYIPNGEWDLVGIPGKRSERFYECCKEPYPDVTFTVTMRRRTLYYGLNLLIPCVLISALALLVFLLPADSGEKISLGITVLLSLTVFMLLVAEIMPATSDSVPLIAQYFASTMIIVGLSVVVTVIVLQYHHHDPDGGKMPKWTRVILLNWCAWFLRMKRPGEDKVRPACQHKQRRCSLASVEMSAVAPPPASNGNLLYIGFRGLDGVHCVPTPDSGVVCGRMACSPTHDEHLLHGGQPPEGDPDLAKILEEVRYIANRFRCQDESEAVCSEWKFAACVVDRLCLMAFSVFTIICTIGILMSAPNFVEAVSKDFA
How it was run: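 Human α7 nAChR stable cells loaded with 4 μM Viviren (final) for 4 h at room temperature in the dark. Compounds in Hanks/20 mM HEPES/0.2% BSA were added and luminescence recorded on FDSS7000. PAM activity = RLU (Max-Min) ratio of test wells to control wells.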

Slc:Wistar rats = assay: Y-shaped maze test in rats (Y-maze test), scopolamine-induced cognitive impairment; assay type: in vivo; settings: 3 mg/kg (oral), treated prior to 0.6 mg/kg scopolamine HBr s.c.
Protocol: Evaluation on Improvement Against Cognitive Impairment with Rats in Y-Shaped Maze Test (Hereinafter, Referred to as “Y-Maze Test”)
In Y-maze test, 0.6 mg/kg scopolamine HBr (cat#S0929, Sigma Aldrich, Japan) can be subcutaneously administered to Slc:Wistar rats (280 to 300 g, male, Japan SLC) to cause cognitive impairment and decrease the percentage of spontaneous alternation behavior. According to the test mechanism, the present compounds were treated prior to the administration of scopolamine, and the improvement effect on cognitive impairment is evaluated.

[1] = 10 μM test compound, ACh at EC20, ratio of RLU (Max-Min) to control wells
[2] = ACh at EC20, ratio of RLU (Max-Min) to control wells

Compound | activity at 10 µM (human α7 nAChR; [1]) [%] | other results
O=C(NC1CCOCC1)[C@H]1CC[C@@H](n2cnc(-c3ccc(F)c(F)c3)c2Cl)CC1 [Example 370, cis-4-[5-chloro-4-(3,4-difluorophenyl)-1H-imidazol-1-yl]-(tetrahydro-2H-pyran-4-yl)cyclohexanecarboxamide] | – | enhancement effect on memory in the 2nd trial (mORT) (Slc:ddY mice): significant memory enhancing effect
O=C(NC1CCCCC1)N1CCC(n2cnc(-c3cccc(F)c3)c2)CC1 [Example 1, N-Cyclohexyl-4-[4-(3-fluorophenyl)-1H-imidazol-1-yl]piperidine-1-carboxamide] | 836 | enhancement effect on memory in the 2nd trial (mORT) (Slc:ddY mice): significant memory enhancing effect; improvement effect on cognitive impairment (Y-maze, spontaneous alternation behavior) (Slc:Wistar rats): significant improvement effect on memory disorder
CC(C)(F)C(=O)N[C@H]1CC[C@@H](n2cnc(-c3ccc(F)cc3)c2Cl)CC1 [Example 183, N-{cis-4-[5-chloro-4-(4-fluorophenyl)-1H-imidazol-1-yl]cyclohexyl}-2-fluoro-2-methylpropanamide] | 791 | enhancement effect on memory in the 2nd trial (mORT) (Slc:ddY mice): significant memory enhancing effect; improvement effect on cognitive impairment (Y-maze, spontaneous alternation behavior) (Slc:Wistar rats): significant improvement effect on memory disorder
O=C(C1CCC(F)(F)CC1)N1[C@@H]2CC[C@H]1C[C@H](n1cnc(-c3ccc(F)cc3)c1Cl)C2 [Example 452, {(3-exo)-3-[5-chloro-4-(4-fluorophenyl)-1H-imidazol-1-yl]-8-azabicyclo[3.2.1]oct-8-yl}(4,4-difluorocyclohexyl)methanone] | – | enhancement effect on memory in the 2nd trial (mORT) (Slc:ddY mice): significant memory enhancing effect
O=C(NC1CCCCC1)[C@H]1CC[C@H](n2cnc(-c3ccccc3)c2Cl)CC1 [Example 233] | – | activity at 10 µM (human α7 nAChR; GH4-C1, 10 μM test compound, ratio of RLU (Max-Min) of test wells to control wells after ACh at EC20, GH4C1 cells expressing human α7 nAChR and aequorin): 102%
CC(C)(F)C(=O)N[C@H]1CC[C@@H](n2cnc(-c3cc(F)c(F)cc3Cl)c2)CC1 [Example 317] | – | activity at 1 µM (human α7 nAChR; [2]): 345%
O=C(Nc1ccccc1F)N1CCC(n2cnc(-c3ccc(F)c(F)c3)c2)CC1 [Example 27] | 139 | –
O=C(NC1CCC(F)(F)CC1)N1[C@@H]2CC[C@H]1C[C@H](n1cnc(-c3ccc(F)cc3F)c1Cl)C2 [Example 415] | 997 | –
O=C(NC1CCC(F)(F)CC1)N1CCC(n2cnc(-c3ccc4c(c3)CCO4)c2)CC1 [Example 44] | 880 | –
O=C(C1CCOCC1)N1CCC(n2cnc(-c3ccc(F)cc3)c2Cl)CC1 [Example 151] | 155 | –
O=C(C1CCOCC1)N1CCC(n2cnc(-c3ccc(C(F)(F)F)cc3)c2Cl)CC1 [Example 262] | 603 | –
O=C(NC1CCCCC1)N1[C@@H]2CC[C@H]1C[C@@H](n1cnc(-c3cc(F)ccc3F)c1)C2 [Example 389] | – | activity at 1 µM (human α7 nAChR; [2]): 163%
O=C(NC1CCCC1)N1CCC(n2cnc(-c3ccccc3)c2)CC1 [Example 36] | 193 | –

Second part, led by results:

activity at 10 µM (human α7 nAChR; [1]) [%] | Compound | other results
787 | CC(C)(F)C(=O)N[C@H]1CC[C@@H](n2cnc(-c3ccc(Cl)cc3)c2)CC1 [Example 280, N-{cis-4-[4-(4-chlorophenyl)-1H-imidazol-1-yl]cyclohexyl}-2-fluoro-2-methylpropanamide] | enhancement effect on memory in the 2nd trial (mORT) (Slc:ddY mice): significant memory enhancing effect
941 | O=C(NC1CCOCC1)[C@H]1CC[C@@H](n2cnc(-c3cc(F)ccc3F)c2Cl)CC1 [Example 368] | –
192 | CC(C)(F)C(=O)N[C@H]1CC[C@@H](n2cnc(-c3cccc(F)c3)c2C#N)CC1 [Example 338] | –
866 | CC(C)(F)C(=O)N[C@H]1CC[C@@H](n2cnc(-c3ccccc3F)c2)CC1 [Example 297] | –
594 | N#Cc1c(-c2ccc(F)cc2)ncn1C1CCN(C(=O)C2CC(F)(F)C2)CC1 [Example 267] | –
